row,melting point [°C],SMILES
1,105 to 109,CCOC(=O)NN=C(c1ccc(Cl)cc1)c1ccc(CSC)cc1
2,218,Cc1ccnc(N2CCN(CCc3c(C)n4c5c(cc(NC(=O)c6ccccc6)cc35)CCC4)CC2)c1
3,61 to 62,O=C(COc1ccccc1)NCCO[N+](=O)[O-]
4,230 to 232,Nc1nc2ccccc2c2c1nc1n2C(CCl)COC1 (stereo unspecified)
5,60 to 62,CCOC(=O)CCC1NC(=O)CN1Cc1ccccc1 (stereo unspecified)
6,247 to 249,COc1ccc(-c2ccc3c(c2)C=C(C(=O)Nc2ccc(CN(C)C4CCOCC4)cc2)CCS3(=O)=O)cc1
7,73,CCOP(=O)(Cc1c(C)cc(O)cc1C1CCCCC1)OCC
8,214 to 215,O=c1[nH]c2ccccc2c(=O)n1S(=O)(=O)c1ccc(Cl)cc1
9,105 to 107,COc1cccc(OC)c1-c1ccc(CC[C@H](NC(=O)c2c(Cl)cccc2Cl)C(=O)O)cc1
10,203 to 204,COc1cc(C(=O)O)ccc1C(F)(F)F
11,270 to 273,O=C(Nc1nc(-c2ccco2)c(C(=O)c2ccnc(N3CCOCC3)c2)s1)c1ccncc1
12,134,COC(=O)NNC(=S)Cc1cc(OC)c(OC)c(OC)c1
13,198 to 200,COC(=O)c1ccc(-c2ccccc2)cc1S(=O)(=O)NC(=O)Nc1nc(C)nc(OC)n1
14,130 to 133,COC(=O)C1=Cc2cc(OCc3ccc(Cl)cc3)ccc2S(=O)(=O)CC1
15,125 to 127,COc1cc(/C=C/S(=O)(=O)CS(=O)(=O)/C=C/c2ccc(O)c(OC)c2)ccc1O
16,207 to 209,C1=C(/C=C/c2ccccc2)CCN(Cc2n[nH]c3ccccc23)C1
17,190 to 193,CCOC(=O)c1[nH]c2ccc(C)cc2c(=O)c1C
18,188 to 189,O=C(O)COc1c(Br)cc(C(=O)c2ccc3ccccc3c2)cc1Br
19,108 to 111,CCOC(=O)CC(O)c1ccc2c(c1)CC(CNS(=O)(=O)c1ccc(Cl)cc1)C2 (stereo unspecified)
20,198,Cc1cccc(-c2nc(N)ncc2-c2ccc(=O)n(C(C)C)n2)c1
21,210 to 212,Cc1ccc(C(=O)n2c3c(c4ccccc42)CC(C(=O)O)CC3)cc1 (stereo unspecified)
22,161 to 162,CC(C)(C)OC(=O)N1CCC[C@H]1CNc1ccc2nccn2n1
23,99 to 105,CCCCCCCCCCCCCCCCCC(=O)OC[C@H]1OCC(=NO)[C@@H](O)[C@@H]1O
24,144 to 146,CC(=O)NCCn1ccc2c1-c1cc(Cl)ccc1CC2
25,113 to 115,Cc1sc2c(c1C(=O)CCCCl)C(=O)NCCC2
26,109 to 111,Cc1ccc(C)n1-c1ccc(C(C)NO)cc1 (stereo unspecified)
27,85 to 87,O=[N+]([O-])c1nccn1CCCl

# The next lines start with the compound.
row,SMILES,melting point [°C]
1,N#Cc1cc(-c2ccoc2)c2ccc(OCc3cccc(-c4ccccc4)n3)cc2c1,131 to 133
2,O=C(CCl)Nc1ccc(C(=O)N2CCc3cc(S(=O)(=O)n4cc(-c5ccccc5)[nH]c4=O)ccc32)cc1,188 to 189
3,COc1ccc(N2CCCN(/C(C)=C(/C#N)C(N)=S)CC2)cc1,157 to 158
4,O=C1N=CNC(=O)C1Cc1ccccc1C(F)(F)F (stereo unspecified),> 290
5,Cc1nc2ccc(S(=O)(=O)n3c(COC(C)C(=O)O)cc4cc(Cl)ccc43)cc2s1 (stereo unspecified),106 to 108
6,CCOC(=O)c1ccc(NC(C)=O)cc1C(=O)OCC,118 to 121
7,Cn1c(=O)n(Cc2ccc(F)cc2)c(=O)c2cc(C(=O)c3nc(-c4cccnc4)c4ccccn34)ccc21,207
8,CC(C)C(=O)Nc1ccc(C(=O)Nc2ccccc2N)cc1,248
9,N#Cc1nn(-c2c(Cl)cc(-c3ccc(C(F)(F)F)cc3)cc2Cl)c(N)c1SC(F)(F)F,181 to 184
10,CCc1nc2cc(C(F)(F)F)c(Cl)cc2n1-c1ccc(CCOC(=O)NS(=O)(=O)c2ccccn2)cc1,127 to 130
11,C#CC(C)(C)OC(=O)Nc1ccc(-c2ncn(-c3ccc(C(F)(F)F)cc3)n2)cc1,187 to 189
12,CC1=C(CC(=O)O)c2cc(F)ccc2C1=Cc1ccc(S(C)(=O)=O)cc1,204 to 206
13,CCN(CC)S(=O)(=O)c1ccc2c(c1)S(=O)(=O)NC(C1CCCCC1)N2 (stereo unspecified),207 to 209
14,CN1CC(c2cccc(Cl)c2)=C(c2ccc(S(C)(=O)=O)cc2)C1=O,170 to 172
15,Cc1cccc(C(=O)O)c1OC1CCOC1=O (stereo unspecified),129 to 131
16,O=C(O)c1ccc(-n2c(-c3ccccc3)cc3c2CCCC3)cc1O,193 to 195
17,CN(C)CCOc1ccc2c(c1)OCC21C(=O)Nc2ccccc21 (stereo unspecified),95 to 97
18,O=C(O)C1=Cc2cccc(-c3ccccc3)c2OC1C(F)(F)F (stereo unspecified),172 to 175
19,CCn1c(=O)oc2cc(N)ccc21,72 to 74
20,CC(C)(O)c1cnn2c(-c3ccc(F)c(-c4ccc(F)cn4)c3)cnc2n1,222
21,CCOCCOc1c(C)cc(C#CC2(O)CN3CCC2CC3)cc1C (stereo unspecified),113 to 115
22,Cc1nc(-c2cccnc2)sc1-c1ccnc(Nc2ccc3c(c2)OCO3)n1,187 to 188

row,SMILES,melting point [°C]
1,CCCc1c(OCCCOc2ccc3c(c2CCC)OC(CCC#N)CC3)ccc(C(C)=O)c1O (stereo unspecified),89 to 89.5
2,CCc1nc2c(C)cc(C)nc2n1Cc1ccc(Nc2ccccc2)cc1,151 to 152
3,CC(O)CCSC(=S)Nc1ccc(Cl)cn1 (stereo unspecified),120
4,O=C(O)c1cc(Cl)c(Cl)c(S(=O)(=O)Cl)c1,203
5,CCN(CC)C(=O)n1ccc(S(=O)(=O)c2c(F)cccc2F)n1,83 to 83.5
6,Cc1ccc(-n2nc(CC(=O)N(C)C)c3c4ccc(Cl)cc4n(C)c3c2=O)cn1,253 to 255
7,Cc1c(C(=O)Nc2ccc(N3CCN(CCO)CC3)c(C#N)c2)cnn1C,228 to 230
8,CCCn1c(COCC)nc2c(N)nc3cc(OCc4ccccc4)ccc3c21,188 to 189
9,COCOc1ccc(N(C)S(=O)(=O)c2ccc(C)cc2)c([N+](=O)[O-])c1,110 to 112
10,CCOC(=O)C(Cc1ccc(OCCc2nc(-c3ccccc3)oc2C)cc1)C(=O)O (stereo unspecified),95.1 to 96
11,CN=C(N)Nc1nc(-c2cccc(C(=O)NCCN)c2)cs1,214 to 216
12,CC1(COC(=O)N2CCN(c3ccc(OC(F)(F)F)cc3)CC2)Cn2cc([N+](=O)[O-])nc2O1 (stereo unspecified),138 to 140
13,FC(F)c1cc(Cl)nc2c1cnn2C1CCCCO1 (stereo unspecified),93
14,CC(C)c1ccccc1SCc1cn(-c2ccc(S(C)(=O)=O)cc2)c(-c2ccc(Cl)cc2)n1,68 to 70
15,CC(C)(C)c1cc(CN)cc(C(C)(C)C)c1O,159
16,CN(C)C1(c2ccccc2)CCC(=CC(=O)NCCCc2c[nH]c3ccccc23)CC1 (stereo unspecified),85 to 87
17,CCOC(=O)Nc1ccc(OCc2ccc(Cl)cc2)cc1[N+](=O)[O-],122
18,C=Cc1cc(C)cc(C)c1C1=C(O)C2(CCN(OC)CC2)N(C)C1=O,158 to 161
19,Cc1nccn1-c1nc(-c2ccc(Cl)cc2)c(CCCCO)o1,110 to 111
20,O=C(Nc1cnc2c(c1)CCCC2)C(Cl)(Cl)Cl,157 to 159
21,Cc1nc2n(c(=O)c1CCN1CCC(C(=O)c3ccc(F)cc3)CC1)CCCS2,165
22,CC(=O)Nc1ccc(OCCO[N+](=O)[O-])cc1,106 to 107
